Measurements: article PMC11766267 (International Journal of Molecular Sciences, 2025)
“And” between values parts separate entries of the source, which are not always exact repeats. Equal entries are not always repeated. Where two headings read alike, the source gives them in different places.

What was measured:
[1] = tested on: HCT-116; assay: MTT cytotoxicity assay, HCT-116; format: cell-based; conditions: Homo sapiens, 24 h treatment, mean ± SD of triplicate
Description: (§1) Subsequently, 100 µL of dimethyl sulfoxide was introduced to dissolve the insoluble formazan.

[2] = tested on: WI-38; assay: MTT cytotoxicity assay, normal cell line WI-38; format: cell-based, human; conditions: normal (non-cancer) cell line, 24 h treatment
Description: as §1

[3] = MTT cytotoxicity assay, normal cell line WI-38; format: cell-based, human; conditions: human, WI-38 cells (normal human lung fibroblasts), normal (non-cancer) cell line, 24 h treatment
Description: as §1

[4] = tested on: HeLa; assay: MTT cytotoxicity assay, HeLa; format: cell-based; conditions: Homo sapiens, 24 h treatment, mean ± SD of triplicate
Description: as §1

[5] = tested on: HCT-116, MDA-MB-231, HeLa, and MCF-7; assay: MTT cytotoxicity assay, ranges stated over several cell lines; format: cell-based; conditions: Homo sapiens
Description: as §1

[6] = tested on: MDA-MB-231; assay: MTT cytotoxicity assay, MDA-MB-231; format: cell-based; conditions: Homo sapiens, 24 h treatment, mean ± SD of triplicate
Description: as §1

[7] = tested on: MCF-7; assay: MTT cytotoxicity assay, MCF-7; format: cell-based, human; conditions: Homo sapiens, MCF7, 24 h, 24 h treatment, mean ± SD of triplicate
Description: as §1

[8] = target: T1, aromatase (CYP19A, EC 1.14.14.14) (Homo sapiens, UniProt P11511); assay: biochemical
T1 construct: Microsomal samples were isolated from tissue using the Microsome Isolation Kit; tissue BioVision K983-100; host or cells: microsomes from an unnamed tissue
T1 sequence (P11511 1-503): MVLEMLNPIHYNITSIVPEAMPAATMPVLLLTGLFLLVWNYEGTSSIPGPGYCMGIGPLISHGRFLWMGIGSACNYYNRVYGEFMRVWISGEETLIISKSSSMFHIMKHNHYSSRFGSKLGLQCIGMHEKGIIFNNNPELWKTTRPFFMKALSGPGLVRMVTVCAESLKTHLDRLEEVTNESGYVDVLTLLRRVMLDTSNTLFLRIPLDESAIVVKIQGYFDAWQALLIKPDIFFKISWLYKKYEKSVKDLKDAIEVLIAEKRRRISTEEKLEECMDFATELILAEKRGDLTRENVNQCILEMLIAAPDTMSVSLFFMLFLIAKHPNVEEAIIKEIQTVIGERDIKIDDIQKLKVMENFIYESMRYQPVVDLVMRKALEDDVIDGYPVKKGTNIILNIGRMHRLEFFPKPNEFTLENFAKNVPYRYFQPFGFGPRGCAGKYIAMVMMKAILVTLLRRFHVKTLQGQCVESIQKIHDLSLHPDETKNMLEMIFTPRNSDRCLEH
Description: In vitro aromatase assay was performed using the BioVision Aromatase Activity Assay Kit (Catalog # K983-100; BioVision, Milpitas, CA, USA). Microsomal samples were isolated from tissue using the Microsome Isolation Kit (Cat. #K249; BioVision, Milpitas, CA, USA). A standard curve was established by diluting the Fluorescence Standard provided in the kit to create a 0.5 pmole/µL solution, followed by setting up a series of standards in a white 96-well plate, adjusting the total volume to 100 µL with aromatase assay buffer. For each reaction well, a 2X concentrated mix was prepared by adding 2–48 µL of the microsomal sample and 2 µL of the NADPH generating system, bringing the final volume to 50 µL with aromatase assay buffer. Background controls (no enzyme) and positive controls (with recombinant aromatase) were included. […] After a 10 min incubation at 37 °C, 30 µL of the substrate/NADP+ mixture was added to each well, and fluorescence was measured immediately in kinetic mode for 60 min at 37 °C. Finally, the change in fluorescence was calculated to determine the specific activity of aromatase using the formula provided in the kit protocol.

[9] = tested on: MCF-7a; assay: In vitro anti-estrogenic activity assay, MCF-7a
[10] = target: VEGFR-2 (Homo sapiens, UniProt P35968); assay: In vitro protein kinase inhibition assay (ELISA kit), VEGFR-2
VEGFR-2, sequence (P35968 20-1356): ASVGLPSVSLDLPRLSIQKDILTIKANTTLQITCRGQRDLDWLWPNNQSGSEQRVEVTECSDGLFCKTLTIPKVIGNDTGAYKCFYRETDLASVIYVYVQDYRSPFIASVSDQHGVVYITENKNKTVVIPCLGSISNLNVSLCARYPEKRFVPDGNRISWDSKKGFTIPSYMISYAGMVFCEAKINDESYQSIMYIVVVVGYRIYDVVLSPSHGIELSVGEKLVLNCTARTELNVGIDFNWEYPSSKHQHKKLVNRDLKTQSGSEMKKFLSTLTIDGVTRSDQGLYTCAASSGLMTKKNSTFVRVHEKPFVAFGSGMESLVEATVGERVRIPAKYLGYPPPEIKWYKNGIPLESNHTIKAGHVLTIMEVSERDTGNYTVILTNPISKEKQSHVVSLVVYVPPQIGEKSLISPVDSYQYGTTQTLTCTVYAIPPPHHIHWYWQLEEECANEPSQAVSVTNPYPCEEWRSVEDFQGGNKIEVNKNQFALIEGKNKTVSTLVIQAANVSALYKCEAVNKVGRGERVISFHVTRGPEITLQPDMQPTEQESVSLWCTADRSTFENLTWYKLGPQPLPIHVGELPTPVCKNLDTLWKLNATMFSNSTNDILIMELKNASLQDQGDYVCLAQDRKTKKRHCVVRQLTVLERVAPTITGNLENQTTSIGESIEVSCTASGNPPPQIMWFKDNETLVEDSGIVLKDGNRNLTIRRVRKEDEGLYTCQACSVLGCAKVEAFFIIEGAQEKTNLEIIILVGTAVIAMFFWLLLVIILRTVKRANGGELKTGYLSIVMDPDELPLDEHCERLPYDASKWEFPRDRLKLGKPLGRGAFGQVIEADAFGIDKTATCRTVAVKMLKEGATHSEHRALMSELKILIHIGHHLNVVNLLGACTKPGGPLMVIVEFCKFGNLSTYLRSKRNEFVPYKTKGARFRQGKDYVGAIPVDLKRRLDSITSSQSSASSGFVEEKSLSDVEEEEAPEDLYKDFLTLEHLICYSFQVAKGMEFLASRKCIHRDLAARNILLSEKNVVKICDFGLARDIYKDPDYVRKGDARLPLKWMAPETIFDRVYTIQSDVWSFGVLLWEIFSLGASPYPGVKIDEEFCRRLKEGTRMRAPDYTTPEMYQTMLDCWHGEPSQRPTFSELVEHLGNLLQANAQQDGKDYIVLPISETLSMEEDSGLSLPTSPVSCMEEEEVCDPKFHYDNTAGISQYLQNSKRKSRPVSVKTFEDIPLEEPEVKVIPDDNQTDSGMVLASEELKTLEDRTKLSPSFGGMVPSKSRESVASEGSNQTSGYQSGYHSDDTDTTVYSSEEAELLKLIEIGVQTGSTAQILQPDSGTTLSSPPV

[11] = target: EGFR (Homo sapiens, UniProt P00533); assay: In vitro protein kinase inhibition assay (ELISA kit), EGFR
EGFR, sequence (P00533 25-1210): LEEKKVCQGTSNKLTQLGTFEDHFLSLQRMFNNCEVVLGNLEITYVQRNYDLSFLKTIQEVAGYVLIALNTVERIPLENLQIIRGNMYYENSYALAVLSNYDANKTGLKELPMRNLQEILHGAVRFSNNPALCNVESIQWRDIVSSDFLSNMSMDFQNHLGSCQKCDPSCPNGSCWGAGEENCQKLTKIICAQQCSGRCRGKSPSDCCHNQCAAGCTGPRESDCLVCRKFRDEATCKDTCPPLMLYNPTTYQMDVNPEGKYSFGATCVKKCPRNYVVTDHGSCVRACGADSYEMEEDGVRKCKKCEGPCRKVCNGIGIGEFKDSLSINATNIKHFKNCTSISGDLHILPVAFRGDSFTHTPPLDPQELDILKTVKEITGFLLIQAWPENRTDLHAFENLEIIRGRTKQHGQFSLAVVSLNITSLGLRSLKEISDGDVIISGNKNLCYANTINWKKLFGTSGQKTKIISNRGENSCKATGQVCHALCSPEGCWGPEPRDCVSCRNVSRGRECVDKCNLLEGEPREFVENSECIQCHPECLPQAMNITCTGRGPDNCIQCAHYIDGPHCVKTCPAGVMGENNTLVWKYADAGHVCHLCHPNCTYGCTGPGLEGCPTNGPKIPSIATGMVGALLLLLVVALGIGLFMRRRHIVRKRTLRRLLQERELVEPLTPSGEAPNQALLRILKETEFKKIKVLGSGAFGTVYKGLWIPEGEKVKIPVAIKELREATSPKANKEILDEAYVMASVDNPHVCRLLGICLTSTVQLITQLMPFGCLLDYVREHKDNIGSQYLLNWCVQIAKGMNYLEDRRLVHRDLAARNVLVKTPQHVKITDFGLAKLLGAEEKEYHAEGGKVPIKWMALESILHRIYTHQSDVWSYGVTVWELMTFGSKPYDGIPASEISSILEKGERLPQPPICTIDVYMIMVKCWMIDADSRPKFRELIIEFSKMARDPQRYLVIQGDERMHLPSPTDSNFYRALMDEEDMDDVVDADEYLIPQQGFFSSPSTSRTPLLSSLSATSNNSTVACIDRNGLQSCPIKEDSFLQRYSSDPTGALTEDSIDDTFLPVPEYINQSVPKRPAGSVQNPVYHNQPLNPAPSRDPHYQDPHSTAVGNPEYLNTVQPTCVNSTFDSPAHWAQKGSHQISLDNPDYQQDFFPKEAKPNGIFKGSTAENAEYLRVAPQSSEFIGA

[12] = target: CDK2 (Homo sapiens, UniProt P24941); assay: In vitro protein kinase inhibition assay (ELISA kit), CDK2
[13] = tested on: MCF-7; assay: In vitro anti-estrogenic activity assay, MCF-7
[14] = target: HER2 (Homo sapiens, UniProt P04626); assay: In vitro protein kinase inhibition assay (ELISA kit), HER2
HER2, sequence (P04626 23-1255): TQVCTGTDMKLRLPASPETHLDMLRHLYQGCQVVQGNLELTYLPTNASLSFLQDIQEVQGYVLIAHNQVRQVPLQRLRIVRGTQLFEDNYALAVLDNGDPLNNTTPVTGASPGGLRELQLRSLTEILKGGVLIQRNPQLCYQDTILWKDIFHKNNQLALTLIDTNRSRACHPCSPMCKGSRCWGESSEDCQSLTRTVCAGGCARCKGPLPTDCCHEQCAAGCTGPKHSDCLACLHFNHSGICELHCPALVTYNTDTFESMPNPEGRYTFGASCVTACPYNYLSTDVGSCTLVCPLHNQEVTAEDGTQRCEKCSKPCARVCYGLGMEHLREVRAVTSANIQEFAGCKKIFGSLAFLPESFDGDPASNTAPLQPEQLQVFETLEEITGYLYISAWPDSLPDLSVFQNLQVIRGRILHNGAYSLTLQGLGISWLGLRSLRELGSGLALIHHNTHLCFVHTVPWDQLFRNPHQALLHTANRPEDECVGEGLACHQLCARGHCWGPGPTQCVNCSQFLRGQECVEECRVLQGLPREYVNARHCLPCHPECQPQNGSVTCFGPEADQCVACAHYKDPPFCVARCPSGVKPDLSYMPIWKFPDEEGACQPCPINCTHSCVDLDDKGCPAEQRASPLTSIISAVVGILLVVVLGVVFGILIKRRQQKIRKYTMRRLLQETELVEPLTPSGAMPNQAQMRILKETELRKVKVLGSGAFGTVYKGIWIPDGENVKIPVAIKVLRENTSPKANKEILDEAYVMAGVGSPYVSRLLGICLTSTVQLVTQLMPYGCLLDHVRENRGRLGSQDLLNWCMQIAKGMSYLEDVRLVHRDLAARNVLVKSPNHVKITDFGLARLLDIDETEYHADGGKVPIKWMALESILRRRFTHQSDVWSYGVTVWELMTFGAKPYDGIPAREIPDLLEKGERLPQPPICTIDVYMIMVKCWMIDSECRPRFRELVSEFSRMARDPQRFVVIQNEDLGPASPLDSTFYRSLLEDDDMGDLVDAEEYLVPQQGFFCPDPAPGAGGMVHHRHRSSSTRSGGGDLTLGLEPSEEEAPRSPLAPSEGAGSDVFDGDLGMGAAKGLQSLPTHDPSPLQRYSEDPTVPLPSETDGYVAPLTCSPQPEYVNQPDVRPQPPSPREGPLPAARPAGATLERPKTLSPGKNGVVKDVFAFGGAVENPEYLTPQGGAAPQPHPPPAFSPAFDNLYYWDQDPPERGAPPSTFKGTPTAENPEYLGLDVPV

[15] = HCT-116, MDA-MB-231, HeLa, MCF-7, range, read-out: IC50 values, range over the cancer cell lines tested
[16] = cell count relative to the control (17β-E2)

`COc1cccc(/C=C/C(=O)c2ccccc2)c1` [Compound 4d, (E)-3-(3-Methoxyphenyl)-1-phenylprop-2-en-1-one] gave an IC50 [1] of 36 ± 2.2 µM, an IC50 [2] of 77.3 ± 3.8 µM and an IC50 at 24 h [3] of 77.3 to 100 µM. The IC50 [4] was 39.4 ± 2.3 µM, the IC50 [5, 15] was 23.5 to 74.5 µM and the IC50 [6] was 43.6 ± 2.3 µM. It also gave an IC50 [7] of 29.7 ± 1.9 µM.
`COc1cc(/C=C/C(=O)c2ccccc2)ccc1OCc1ccccc1` [Compound 4t, (E)-3-(4-(Benzyloxy)-3-methoxyphenyl)-1-phenylprop-2-en-1-one] gave an IC50 [1] of 68.9 ± 3.7 µM, an IC50 [2] of 40.1 ± 2.5 µM and an IC50 at 24 h [3] of 40 to 40.1 µM. For the same compound, the IC50 [4] was 59.3 ± 3.4 µM, the IC50 [5, 15] was 55.6 to 82.8 µM and the IC50 [6] was 64.1 ± 3.8 µM. It also gave an IC50 [7] of 55.6 ± 2.9 µM.
For `COc1ccc(C(=O)/C=C/c2ccc(OCc3ccccc3)c(OC)c2)cc1` [Compound 4v, (E)-3-(4-(Benzyloxy)-3-methoxyphenyl)-1-(4-methoxyphenyl)prop-2-en-1-one], the IC50 [1] was 14.5 ± 1.1 µM, the “Inhibition (%) Aromatase” value ([8]; 0.01 µM, individual Data 1-3) was 17% and 20% and the “Inhibition (%) Aromatase” value ([8]; 0.1 µM, individual Data 1-3) was 36%. For the same compound, the “Inhibition (%) Aromatase” value ([8]; 1 µM, individual Data 1-3) was 64% and 63%, the “Inhibition (%) Aromatase” value ([8]; 10 µM, individual Data 1-3) was 84% and 87% and the “Inhibition (%) Aromatase” value ([8]; 100 µM, individual Data 1-3) was 94% and 97%. It also gave an IC50 ([8]; mean ± SD of triplicate, approximate values, read-out: Aromatase Inhibition IC50) of 0.357 ± 0.012 µM, an inhibition at 0.01 µM ([8]; read-out: Inhibition (%) Aromatase, 0.01 µM, individual Data 1-3) of 18% and an inhibition at 0.1 µM ([8]; read-out: Inhibition (%) Aromatase, 0.1 µM, individual Data 1-3) of 34%. It also gave an inhibition at 1 µM ([8]; read-out: Inhibition (%) Aromatase, 1 µM, individual Data 1-3) of 66%, an inhibition at 10 µM ([8]; read-out: Inhibition (%) Aromatase, 10 µM, individual Data 1-3) of 85% and an inhibition at 100 µM ([8]; read-out: Inhibition (%) Aromatase, 100 µM, individual Data 1-3) of 95%. The IC50 at 24 h [3] was 75.2 ± 3.9 µM, the “Cell Proliferation MCF-7a %” value [9, 16] was 98% and the “Cell Proliferation MCF-7a Cell Count” value ([9]; mean ± SD of triplicate) was 20,397 ± 589. The “Inhibition in MCF-7a” value ([9]; relative to control) was 2%, the IC50 [10] was 1.82 ± 0.062 µM and the “Inhibition (%) VEGFR2” value ([10]; 0.01 µM, individual Data 1-3) was 5.43% and 9.43%. For the same compound, the “Inhibition (%) VEGFR2” value ([10]; 0.1 µM, individual Data 1-3) was 15% and 21.8%, the “Inhibition (%) VEGFR2” value ([10]; 1 µM, individual Data 1-3) was 36.9% and 34.2% and the “Inhibition (%) VEGFR2” value ([10]; 10 µM, individual Data 1-3) was 67.26% and 74.3%. For the same compound, the “Inhibition (%) VEGFR2” value ([10]; 100 µM, individual Data 1-3) was 86% and 93.4%, the inhibition at 0.01 µM ([10]; read-out: Inhibition (%) VEGFR2, 0.01 µM, individual Data 1-3) was 7.43% and the inhibition at 0.1 µM ([10]; read-out: Inhibition (%) VEGFR2, 0.1 µM, individual Data 1-3) was 18.1%. For the same compound, the inhibition at 1 µM ([10]; read-out: Inhibition (%) VEGFR2, 1 µM, individual Data 1-3) was 39%, the inhibition at 10 µM ([10]; read-out: Inhibition (%) VEGFR2, 10 µM, individual Data 1-3) was 70.2% and the inhibition at 100 µM ([10]; read-out: Inhibition (%) VEGFR2, 100 µM, individual Data 1-3) was 89.2%. The IC50 [4] was 18.2 ± 1.5 µM, the IC50 ([5]; HCT-116 and HeLa, range over the compounds named, read-out: IC50 values, range against HCT-116 and HeLa) was 6.59 to 22.6 µM and the IC50 ([5]; MDA-MB-231 and MCF-7, range over the compounds named, read-out: IC50 values, range against MDA-MB-231 and MCF-7) was 2.08 to 13.6 µM. For the same compound, the IC50 [6] was 10.2 ± 0.8 µM, the IC50 [11] was 0.671 ± 0.022 µM and the “Inhibition (%) EGFR” value ([11]; 0.01 µM, individual Data 1-3) was 3.97% and 2.96% and 6%. The “Inhibition (%) EGFR” value ([11]; 0.1 µM, individual Data 1-3) was 28.6% and 31.2%, the “Inhibition (%) EGFR” value ([11]; 1 µM, individual Data 1-3) was 59.9% and 57.5% and the “Inhibition (%) EGFR” value ([11]; 10 µM, individual Data 1-3) was 82.3% and 86.7%. The “Inhibition (%) EGFR” value ([11]; 100 µM, individual Data 1-3) was 90.54% and 95%, the inhibition at 0.1 µM ([11]; read-out: Inhibition (%) EGFR, 0.1 µM, individual Data 1-3) was 29.6% and the inhibition at 1 µM ([11]; read-out: Inhibition (%) EGFR, 1 µM, individual Data 1-3) was 62.3%. For the same compound, the inhibition at 10 µM ([11]; read-out: Inhibition (%) EGFR, 10 µM, individual Data 1-3) was 84.2%, the inhibition at 100 µM ([11]; read-out: Inhibition (%) EGFR, 100 µM, individual Data 1-3) was 92.4% and the IC50 [12] was 1.03 ± 0.032 µM. The “Inhibition (%) CDK2” value ([12]; 0.01 µM, individual Data 1-3) was 5.2% and 8.6%, the “Inhibition (%) CDK2” value ([12]; 0.1 µM, individual Data 1-3) was 18.3% and 24.97% and the “Inhibition (%) CDK2” value ([12]; 1 µM, individual Data 1-3) was 47.4% and 43.2%. The “Inhibition (%) CDK2” value ([12]; 10 µM, individual Data 1-3) was 76.2% and 84.1%, the “Inhibition (%) CDK2” value ([12]; 100 µM, individual Data 1-3) was 89.1% and 95.3% and the inhibition at 0.01 µM ([12]; read-out: Inhibition (%) CDK2, 0.01 µM, individual Data 1-3) was 6.58%. It also gave an inhibition at 0.1 µM ([12]; read-out: Inhibition (%) CDK2, 0.1 µM, individual Data 1-3) of 22.9%, an inhibition at 1 µM ([12]; read-out: Inhibition (%) CDK2, 1 µM, individual Data 1-3) of 51.2% and an inhibition at 10 µM ([12]; read-out: Inhibition (%) CDK2, 10 µM, individual Data 1-3) of 79.3%. For the same compound, the inhibition at 100 µM ([12]; read-out: Inhibition (%) CDK2, 100 µM, individual Data 1-3) was 92.3%, the “Cell Proliferation MCF-7 %” value [13, 16] was 73% and the “Cell Proliferation MCF-7 Cell Count” value ([13]; mean ± SD of triplicate) was 13,611 ± 485. For the same compound, the “Reduction of growth/cell count (inhibition) in MCF-7” value ([13]; relative to control) was 27%, the IC50 [14] was 1.57 ± 0.061 µM and the “Inhibition (%) Her2” value ([14]; 0.01 µM, individual Data 1-3) was 4.92% and 2.56% and 8.92%. For the same compound, the “Inhibition (%) Her2” value ([14]; 0.1 µM, individual Data 1-3) was 7.65% and 12.67%, the “Inhibition (%) Her2” value ([14]; 1 µM, individual Data 1-3) was 45.3% and 42.34% and the “Inhibition (%) Her2” value ([14]; 10 µM, individual Data 1-3) was 71.2% and 75.89%. The “Inhibition (%) Her2” value ([14]; 100 µM, individual Data 1-3) was 88.65% and 94.3%, the inhibition at 0.1 µM ([14]; read-out: Inhibition (%) Her2, 0.1 µM, individual Data 1-3) was 10.2% and the inhibition at 1 µM ([14]; read-out: Inhibition (%) Her2, 1 µM, individual Data 1-3) was 48.9%. For the same compound, the inhibition at 10 µM ([14]; read-out: Inhibition (%) Her2, 10 µM, individual Data 1-3) was 74.7%, the inhibition at 100 µM ([14]; read-out: Inhibition (%) Her2, 100 µM, individual Data 1-3) was 91.6% and the IC50 [7] was 8.67 ± 0.6 µM.
